Test results reported in patent publication US20230365673A1, “MEANS FOR REDUCING RADIO- AND CHEMOTHERAPY RESISTANCE AND ADVERSE EFFECTS” (JOHANN WOLFGANG GOETHE-UNIVERSITÄT FRANKFURT AM MAIN, priority 2020, published 2023).

Columns and labels:
[1] = test system: APTKA conditioned fibroblasts; test: Fibroblast morphology after fractionated irradiation (3×2 Gy); assay type: cell-based, mouse
Method: (A) Schematic illustration of APTKA organoids supernatant collection and treatment of colon fibroblasts from unchallenged wildtype C57BL/6 mice for 12 h followed by 3×2 Gy irradiation. Microscopic, proteomic & transcriptomic analysis were performed 72 h post first irradiation. (B) Microscopic captures of non-irradiated wildtype (WT) and APTKA conditioned fibroblasts. Remaining captures belong to irradiated fibroblasts: WT, IL-1α (1 μg/mL) stimulated WT, and APTKA conditioned media minus or plus anakinra (20 μg/mL) treated fibroblasts. Scale bars=200 μm. (C) Mass spectrometric analysis of matrisome profiles of 3×2 Gy irradiated (n=8) and non-irradiated (n=8) APTKA conditioned fibroblasts. […] (G) Immunoblot analysis of untreated and irradiated APTKA conditioned fibroblasts. Representative results from one experiment which has been independently repeated 2 times. (H) SA-ß gal staining of untreated and irradiated APTKA fibroblasts. Scale bars=100 μm. (I and J) p21 and pH2AX immunofluorescent staining of untreated and irradiated APTKA fibroblasts. Scale bars=[…]. Data are mean±SD. ** […] and *** p<0.001 by t-test. (K) Nitrite concentration determined by Griess assay in conditioned media from WT, APTK media, APTKA media, IL-1α (1 μg/mL) stimulated and APTKA plus anakinra (20 μg/mL) treated fibroblasts for 72 h (n=10 independent wells per group). […]

[2] = test system: primary mouse colon fibroblasts; test: Inflammatory gene expression (RT-qPCR/RNAseq) in fibroblasts treated with APTKA conditioned medium; assay type: cell-based
Method: (A) Schematic illustration of APTKA or APTK organoids supernatant collection and treatment of primary mouse colon fibroblasts of unchallenged wildtype C57BL/6 mice. […] (F) Relative expression analysis by RT-qPCR of inflammatory genes in untreated wildtype and APTKA conditioned medium treated fibroblasts in the presence of IKKß inhibitor ML120B (30 μM) and p38 MAPK inhibitor SB203580 (10 μM) for 24 h (n=4 independent wells per group). Data are mean±SD. p<0.05 by one-way ANOVA followed by Tukey's multiple comparisons test. Representative results from one experiment which has been independently repeated 3 times. (G and H) RNA sequencing analysis of APTKA (n=3) and APTK (n=3) organoids: (G) heat map analysis; (H) differentially expressed cytokines in APTKA (Log 2 fold change≤−1) compared to APTK organoids (log 2 fold Change≥1). p-value<0.05. (I) RT-qPCR analysis of inflammatory genes in APTKA conditioned fibroblasts treated with control IgG, α-IL-1α, α-IL-33, α-TNF-α, α-BAFF or α-CXCL16 neutralizing antibodies (2 μg/mL each) for 24 h (n=4 independent wells per group). Data are mean±SD. **** p<0.0001 by one-way ANOVA followed by Tukey's multiple comparisons test. Experiment performed twice. (J) RNA expression profiles of inflammatory genes in APTKA conditioned fibroblasts stimulated for 24 h then subjected to anakinra (10 μg/mL), APTKA fresh or regular medium treatments for another 24 h (n=4 independent wells per condition). Data are mean±SD; p<0.05 by one-way ANOVA followed by Tukey's multiple comparisons test. Representative results from one experiment which has been independently repeated 2 times.
To examine whether APTK and APTKA tumour organoids differentially affect surrounding fibroblasts in tumours directly in a paracrine manner, supernatants were collected from both tumour organoid lines and treated primary intestinal fibroblasts of unchallenged wildtype mice for 24 hours with the two different tumour-conditioned media ex vivo (FIG. 3A). RNAseq analysis confirmed distinct gene expression patterns in fibroblasts exposed to the two organoid supernatants (FIG. 3B).
The inventors then aimed to identify the upstream factors secreted by APTKA organoids that were responsible for activating NF-κB and p38 in fibroblasts. To this end RNAseq analysis of APTK and APTKA tumour organoids were performed and identified several differentially expressed genes encoding cytokines (FIG. 3G, H). Using neutralizing antibodies, NF-κB and p38 inducing cytokines TNFα, IL-1α, IL-33, BAFF or CXCL16 were blocked in APTKA supernatants and expression of Cxcl1, Cxcl2, Cxcl5 and Ilia as inflammatory marker genes in fibroblasts was examined.
To do so, fibroblasts were stimulated for 24 hours with APTKA conditioned medium before adding anakinra, adding fresh APTKA medium or changing medium to regular medium.

anakinra: Kineret®, an interleukin-1 receptor antagonist
APTKA-induced elongated, spindle like morphology after irradiation ([1]; wildtype fibroblasts, APTKA conditioned medium plus anakinra 20 μg/mL): prevented the APTKA-induced phenotype
expression of Cxcl1, Cxcl5 and Mmp13 in already polarized fibroblasts ([2]; 24 h APTKA conditioned medium, then anakinra 10 μg/mL for another 24 h): completely reverted expression of these genes
upregulation of pro-inflammatory genes in fibroblasts ([2]; APTKA conditioned medium plus anakinra, data not shown): prevented upregulation of pro-inflammatory genes

recombinant IL-1α: recombinant cytokine used to stimulate fibroblasts
fibroblast morphology after irradiation ([1]; recombinant IL-1α 1 μg/mL alone): sufficient to cause a comparable morphology after irradiation
transcriptomic profile induced in fibroblasts ([2]; recombinant IL-1α alone, compared with APTKA supernatant, data not shown): sufficed to induce a similar transcriptomic profile as APTKA supernatant
